Measurements from patent US11634447B2 (priority 2012, dated 2023).

Tests used:
FimH-CRD [1] = biological target: T1, FimH-CRD (Escherichia coli, UniProt P08191); experiment: Competitive binding assay by fluorescence polarization, assay 1 (compounds prepared by manual dilution); parameters: species or system E. coli
T1 construct: The first 177 amino acids of the FimH protein are expressed as a fusion protein; thrombin tag (printed as 'fusion protein with thrombin') (cleaved yes); made in house; host or cells: bacteria (pET21b plasmid)
T1 sequence (P08191 22-177): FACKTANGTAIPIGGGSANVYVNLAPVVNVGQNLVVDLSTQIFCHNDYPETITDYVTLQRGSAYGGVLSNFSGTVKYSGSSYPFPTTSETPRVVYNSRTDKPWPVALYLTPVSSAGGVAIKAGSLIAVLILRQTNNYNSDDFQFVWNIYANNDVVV
In short: (§1)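 FimH-CRD (residues 1-177, tag removed) at 60 nM competed against 5 nM Alexa 647 mannoside probe in 50 mM Tris-Cl pH 7.0, 100 mM NaCl, 1 mM EDTA, 5 mM β-mercaptoethanol, 0.05% BSA, 2.5% DMSO; 5 h, room temperature, dark. Compounds 0.4 nM-75 μM final, 12-point 3-fold, duplicate; Kd from fluorescence polarization displacement curves. Assay 1: manual dilution; assay 2: robotic dilution, plates frozen/thawed.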

FimH-CRD [2] = biological target: T1, FimH-CRD; experiment: Competitive binding assay by fluorescence polarization, assay 2 (compounds prepared by a robotics system, plates frozen and thawed); parameters: species or system E. coli
In short: as §1

Measured: Kd

OC[C@H]1O[C@H](Cc2ccc(-c3ccc(C[C@H]4O[C@H](CO)[C@@H](O)[C@H](O)[C@@H]4O)cc3)cc2)[C@@H](O)[C@@H](O)[C@@H]1O [Compound 41, ((2R,3S,4R,5S,6R)-2-(Hydroxymethyl)-6-[[4-[4-[[(2R,3S,4R,5S,6R)-3,4,5-trihydroxy-6-(hydroxymethyl)tetrahydropyran-2-yl]methyl]phenyl]phenyl]methyl]tetrahydropyran-3,4,5-triol)]
< 5 nM: FimH-CRD [1]; Assay 1 Kd, 5 nM Alexa 647 mannoside probe, 60 nM FimH-CRD, replicate values in one cell | FimH-CRD [1]; read-out: Assay 1 Kd, 5 nM Alexa 647 mannoside probe, 60 nM FimH-CRD, replicate values in one cell | FimH-CRD [2]; Assay 2 Kd, 5 nM Alexa 647 mannoside probe, 60 nM FimH-CRD, replicate values in one cell | FimH-CRD [2]; read-out: Assay 2 Kd, 5 nM Alexa 647 mannoside probe, 60 nM FimH-CRD, replicate values in one cell
